Tested on: 624824-186-R-J2-PDC multicell spheroids, viability
Experiment: Anticancer human tumor 624824-186-R-J2-PDC patient-derived colon adenocarcinoma cell line growth inhibition [PI3K]
Conditions: for IC50: curve of first compound; for viability, T/C: stronger effect = lower value
Procedure, shortened: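 Agents were dosed from a top concentration near clinical Cmax (otherwise 10 microM) in half-log decrements, alone or combined with PI3K inhibitors. The spheroids contain tumor cells plus endothelial (HUVEC) and MSC stroma; viability is measured.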

[1] = second compound 0.00316 µM, first compound 0.0316 µM
[2] = second compound 0.00316 µM, first compound 0.1 µM
[3] = second compound 0.00316 µM, first compound 0.316 µM
[4] = second compound 0.00316 µM, first compound 1 µM
[5] = second compound 0.00316 µM, first compound 3.16 µM
[6] = second compound 0.00316 µM, first compound 10 µM
[7] = second compound 0.01 µM, first compound 0.0316 µM
[8] = second compound 0.01 µM, first compound 0.1 µM
[9] = second compound 0.01 µM, first compound 0.316 µM
[10] = second compound 0.01 µM, first compound 1 µM
[11] = second compound 0.01 µM, first compound 3.16 µM
[12] = second compound 0.01 µM, first compound 10 µM
[13] = second compound 0.0316 µM, first compound 0.0316 µM
[14] = second compound 0.0316 µM, first compound 0.1 µM
[15] = second compound 0.0316 µM, first compound 0.316 µM
[16] = second compound 0.0316 µM, first compound 1 µM
[17] = second compound 0.0316 µM, first compound 3.16 µM
[18] = second compound 0.0316 µM, first compound 10 µM
[19] = second compound 0.1 µM, first compound 0.0316 µM
[20] = second compound 0.1 µM, first compound 0.1 µM
[21] = second compound 0.1 µM, first compound 0.316 µM
[22] = second compound 0.1 µM, first compound 1 µM
[23] = second compound 0.1 µM, first compound 3.16 µM
[24] = second compound 0.1 µM, first compound 10 µM
[25] = second compound 0.316 µM, first compound 0.0316 µM
[26] = second compound 0.316 µM, first compound 0.1 µM
[27] = second compound 0.316 µM, first compound 0.316 µM
[28] = second compound 0.316 µM, first compound 1 µM
[29] = second compound 0.316 µM, first compound 3.16 µM
[30] = second compound 0.316 µM, first compound 10 µM
[31] = second compound 1 µM, first compound 0.0316 µM
[32] = second compound 1 µM, first compound 0.1 µM
[33] = second compound 1 µM, first compound 0.316 µM
[34] = second compound 1 µM, first compound 1 µM
[35] = second compound 1 µM, first compound 3.16 µM
[36] = second compound 1 µM, first compound 10 µM
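Further: spheroids exposed to agents for 7 days before viability read.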
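Wherever viability, T/C is given: 100% = DMSO vehicle treated spheroids.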

CCCS(=O)(=O)Nc1ccc(F)c(C(=O)c2c[nH]c3ncc(-c4ccc(Cl)cc4)cc23)c1F + COc1c(OCCCN2CCOCC2)ccc2c3n(c(=NC(=O)c4cnc(N)nc4)nc12)CCN3
IC50 (second compound 0.00316 µM): 9490 nM | IC50 (second compound 0.01 µM): 7330 nM | IC50 (second compound 0.0316 µM): 2200 nM | IC50 (second compound 0.1 µM): 1760 nM | IC50 (second compound 0.316 µM): 178 nM | IC50 (second compound 1 µM): 111 nM | viability, T/C [1]: 84.7% | viability, T/C [2]: 95.8% | viability, T/C [3]: 79.4% | viability, T/C [4]: 111% | viability, T/C [5]: 123% | viability, T/C [6]: 47.7% | viability, T/C [7]: 81.5% | viability, T/C [8]: 95.2% | viability, T/C [9]: 82.3% | viability, T/C [10]: 87.4% | viability, T/C [11]: 82.1% | viability, T/C [12]: 38% | viability, T/C [13]: 84.2% | viability, T/C [14]: 64.8% | viability, T/C [15]: 61.6% | viability, T/C [16]: 55.6% | viability, T/C [17]: 60.6% | viability, T/C [18]: 30.2% | viability, T/C [19]: 65.3% | viability, T/C [20]: 54.4% | viability, T/C [21]: 50% | viability, T/C [22]: 48.1% | viability, T/C [23]: 49.8% | viability, T/C [24]: 21.4% | viability, T/C [25]: 64.3% | viability, T/C [26]: 51% | viability, T/C [27]: 42.8% | viability, T/C [28]: 37.9% | viability, T/C [29]: 39.5% | viability, T/C [30]: 18.6% | viability, T/C [31]: 56.5% | viability, T/C [32]: 50.1% | viability, T/C [33]: 44.2% | viability, T/C [34]: 35.4% | viability, T/C [35]: 35.1% | viability, T/C [36]: 20.6%

C[C@@H](NC(=O)c1ncnc(N)c1Cl)c1ncc(C(=O)Nc2cc(C(F)(F)F)c(Cl)cn2)s1 + COc1c(OCCCN2CCOCC2)ccc2c3n(c(=NC(=O)c4cnc(N)nc4)nc12)CCN3
IC50 (second compound 0.00316 µM): > 10000 nM | IC50 (second compound 0.01 µM): > 10000 nM | IC50 (second compound 0.0316 µM): > 10000 nM | IC50 (second compound 0.1 µM): 1020 nM | IC50 (second compound 0.316 µM): 505 nM | IC50 (second compound 1 µM): 511 nM | viability, T/C [1]: 106% | viability, T/C [2]: 112% | viability, T/C [3]: 93.5% | viability, T/C [4]: 84.4% | viability, T/C [5]: 62.2% | viability, T/C [6]: 65.2% | viability, T/C [7]: 95.5% | viability, T/C [8]: 119% | viability, T/C [9]: 106% | viability, T/C [10]: 70.1% | viability, T/C [11]: 61.6% | viability, T/C [12]: 62.6% | viability, T/C [13]: 91.3% | viability, T/C [14]: 93% | viability, T/C [15]: 88.9% | viability, T/C [16]: 63.9% | viability, T/C [17]: 63.4% | viability, T/C [18]: 48% | viability, T/C [19]: 88.7% | viability, T/C [20]: 73.9% | viability, T/C [21]: 64.6% | viability, T/C [22]: 50.2% | viability, T/C [23]: 38.7% | viability, T/C [24]: 33.1% | viability, T/C [25]: 77.2% | viability, T/C [26]: 59.9% | viability, T/C [27]: 55.7% | viability, T/C [28]: 46.4% | viability, T/C [29]: 33.8% | viability, T/C [30]: 28.9% | viability, T/C [31]: 62.4% | viability, T/C [32]: 63.4% | viability, T/C [33]: 52.1% | viability, T/C [34]: 42.5% | viability, T/C [35]: 39.2% | viability, T/C [36]: 26.1%

Cn1ncnc1[C@H]1c2n[nH]c(=O)c3cc(F)cc(c23)N[C@@H]1c1ccc(F)cc1 + COc1c(OCCCN2CCOCC2)ccc2c3n(c(=NC(=O)c4cnc(N)nc4)nc12)CCN3
IC50 (second compound 0.00316 µM): > 100 nM | IC50 (second compound 0.01 µM): > 100 nM | IC50 (second compound 0.0316 µM): > 100 nM | IC50 (second compound 0.1 µM): > 100 nM | IC50 (second compound 0.316 µM): > 100 nM | IC50 (second compound 1 µM): > 100 nM | viability, T/C (second compound 0.00316 µM, first compound 0.000316 µM): 93.9% | viability, T/C (second compound 0.00316 µM, first compound 0.001 µM): 83.3% | viability, T/C (second compound 0.00316 µM, first compound 0.00316 µM): 96.7% | viability, T/C (second compound 0.00316 µM, first compound 0.01 µM): 72% | viability, T/C [1]: 88.8% | viability, T/C [2]: 78.4% | viability, T/C (second compound 0.01 µM, first compound 0.000316 µM): 94.2% | viability, T/C (second compound 0.01 µM, first compound 0.001 µM): 81.2% | viability, T/C (second compound 0.01 µM, first compound 0.00316 µM): 79.8% | viability, T/C (second compound 0.01 µM, first compound 0.01 µM): 84.5% | viability, T/C [7]: 93.3% | viability, T/C [8]: 77.7% | viability, T/C (second compound 0.0316 µM, first compound 0.000316 µM): 90.2% | viability, T/C (second compound 0.0316 µM, first compound 0.001 µM): 81.9% | viability, T/C (second compound 0.0316 µM, first compound 0.00316 µM): 84.1% | viability, T/C (second compound 0.0316 µM, first compound 0.01 µM): 83.1% | viability, T/C [13]: 88% | viability, T/C [14]: 95.6% | viability, T/C (second compound 0.1 µM, first compound 0.000316 µM): 72.2% | viability, T/C (second compound 0.1 µM, first compound 0.001 µM): 77.4% | viability, T/C (second compound 0.1 µM, first compound 0.00316 µM): 70.6% | viability, T/C (second compound 0.1 µM, first compound 0.01 µM): 73.7% | viability, T/C [19]: 84.9% | viability, T/C [20]: 76.8% | viability, T/C (second compound 0.316 µM, first compound 0.000316 µM): 71.1% | viability, T/C (second compound 0.316 µM, first compound 0.001 µM): 65.2% | viability, T/C (second compound 0.316 µM, first compound 0.00316 µM): 61.7% | viability, T/C (second compound 0.316 µM, first compound 0.01 µM): 62.6% | viability, T/C [25]: 76.3% | viability, T/C [26]: 60.9% | viability, T/C (second compound 1 µM, first compound 0.000316 µM): 55.7% | viability, T/C (second compound 1 µM, first compound 0.001 µM): 50.2% | viability, T/C (second compound 1 µM, first compound 0.00316 µM): 55.9% | viability, T/C (second compound 1 µM, first compound 0.01 µM): 56.6% | viability, T/C [31]: 63.6% | viability, T/C [32]: 60.8%
